Experimental data from patent publication US5352690A, “1,2,4-trioxygenated benzene derivatives useful as leukotriene antagonists” (Eli Lilly and Company, priority 1992, dated 1994).
Counter-ions that a name gives are not always drawn.

Legend:
[1] = molecular target: [^3 H]-LTB4 binding, guinea pig lung membranes (Cavia porcellus, UniProt H0VYV8); test: [^3 H]-LTB4 Radioligand Binding Assay in Guinea Pig Lung Membranes; details: read-out: Binding Guinea Pig Lung pKi (converted)
[2] = molecular target: [^3 H]-LTB4 binding to receptors on human neutrophils (Homo sapiens, UniProt Q15722); test: biochemical; details: [^3 H]-LTB4 2.65 nM (20 μl), 4° C., 10 minutes
[^3 H]-LTB4 binding to receptors on human neutrophils, sequence (Q15722 whole entry): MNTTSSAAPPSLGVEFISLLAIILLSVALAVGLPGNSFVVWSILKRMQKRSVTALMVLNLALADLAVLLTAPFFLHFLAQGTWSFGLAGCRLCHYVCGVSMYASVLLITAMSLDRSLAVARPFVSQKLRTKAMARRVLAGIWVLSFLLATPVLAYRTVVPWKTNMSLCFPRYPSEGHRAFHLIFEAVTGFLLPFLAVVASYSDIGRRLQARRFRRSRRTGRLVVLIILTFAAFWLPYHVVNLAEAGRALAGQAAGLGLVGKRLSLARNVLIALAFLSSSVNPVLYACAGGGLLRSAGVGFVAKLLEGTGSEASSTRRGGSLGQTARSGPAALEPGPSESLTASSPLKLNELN
Experimental: The effectiveness of the compounds of the present invention to inhibit binding of [^3 H]-LTB4 to human neutrophils was measured by using an adaptation of a radioligand binding assay developed by Goldman, D. W. and Goetzl, E. J.: Specific binding of leukotriene B4 to receptors on human polymornuclear leukocytes. J. Immunol. 129: 1600-1604(1982). Heparinized venous blood was drawn from normal human volunteers and neutrophils isolated by standard techniques of Ficoll-Hypaque centrifugation, dextran 70 sedimentation and hypotonic lysis. […] The binding assay was carried out in silanized 12×75 mm glass tubes by adding in the following order: 10 μl DMSO containing different amounts of test compound,20 μl of 2.65 nM [^3 H]-LTB4 and 500 μl of the cells suspended in Hanks' balanced salt solution containing 0.1% ovalbumin (2×10^7 cells/ml). Tubes were incubated at 4° C. for 10 minutes and the reaction terminated by isolating the cells with a Brandel MB-48R harvester. Radioactivity bound to the cells was measured by scintillation spectrometry. Nonspecific binding was determined by measuring the amount of label bound when a greater than 2000-fold excess of nonradioactive ligand was added. Appropriate corrections for nonspecific binding were made when analyzing the data.

[^3 H]-LTB4 binding, guinea pig lung membranes, sequence (H0VYV8 1-348): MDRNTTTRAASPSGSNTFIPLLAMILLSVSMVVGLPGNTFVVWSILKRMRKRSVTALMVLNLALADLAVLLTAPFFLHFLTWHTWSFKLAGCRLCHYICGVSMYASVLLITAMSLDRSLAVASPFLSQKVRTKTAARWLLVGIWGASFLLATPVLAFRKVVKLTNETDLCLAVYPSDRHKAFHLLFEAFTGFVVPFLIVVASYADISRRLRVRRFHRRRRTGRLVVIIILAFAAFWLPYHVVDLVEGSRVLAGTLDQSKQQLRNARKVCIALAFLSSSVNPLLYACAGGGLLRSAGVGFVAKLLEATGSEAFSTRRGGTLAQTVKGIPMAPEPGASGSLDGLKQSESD

Row | Structure (SMILES) | Ki [1] [nM] | IC50 [2] [nM]
1 | CCc1cc(OC(C)C)c(O)cc1OCCCCCC(C)(C)c1nn[nH]n1 [sodium salt] | 40.7 | 
2 | CCCc1c(OCCCOc2cc(O)c(OC)cc2CC)ccc2c1OC(C(=O)O)CC2 (stereo not shown) [Example 9, 3,4-Dihydro-8-propyl-7-[3-(2-ethyl-5-hydroxy-4-methoxy-phenoxy)propoxy]-2H-1-benzopyran-2-carboxylic acid] | 1.51 | 2.9
3 | CCc1cc(OC)c(O)cc1OCCCCCC(C)(C)c1nn[nH]n1 [sodium salt] | 22.9 | 
4 | CCCc1c(OCCCOc2cc(O)c(OCC)cc2CC)ccc2c1OC(C(=O)O)CC2 (stereo not shown) [Example 10, 3,4-Dihydro-8-propyl-7-[3-(2-ethyl-5-hydroxy-4-ethoxy-phenoxy)propoxy]-2H-1-benzopyran-2-carboxylic acid] | 1.29 | 4.2
5 | CCc1cc(OCCC(C)C)c(O)cc1OCCCCCC(C)(C)c1nn[nH]n1 [sodium salt] | 74.1 | 
6 | CCOc1cc(CC)c(OCCCCCC(C)(C)c2nn[nH]n2)cc1O [sodium salt] | 12.3 | 
7 | CCc1cc(OCc2ccc(F)cc2)c(O)cc1OCCCCCC(C)(C)c1nn[nH]n1 [sodium salt] | 110 | 
8 | CCCCCOc1cc(CC)c(OCCCCCC(C)(C)c2nn[nH]n2)cc1O [sodium salt] | 21.4 | 
9 | CCc1cc(Sc2ccccc2)c(O)cc1OCCCCCC(C)(C)c1nn[nH]n1 [disodium salt] | 219 | 885
10 | CCc1cc(OC2CCCC2)c(O)cc1OCCCCCC(C)(C)c1nn[nH]n1 [sodium salt] | 77.6 | 
